Data on 14 molecules can be found in patent US20120028988A1, “USE OF PYRIDAZINONE COMPOUND FOR CONTROL OF HARMFUL ARTHROPOD PESTS” (SUMITOMO CHEMICAL COMPANY, LIMITED, priority 2009, published 2012).

In one data set the test system is Plutella xylostella. The data set can be described thus: whole plant or invertebrate. It counts as in vivo. To be noted: 120 h, 500 ppm active ingredient, 20 mL/cup sprayed on Brassicae oleracea, second-stage larvae, 25° C., after 5 days, read-out: mortality of the insects. The protocol: (§1) The preparation of the present composition obtained by Preparation Example 14 was diluted with water so as to have a concentration of active ingredient of 500 ppm, to prepare a drug solution for test.
The drug solution for test was sprayed at a rate of 20 mL/cup on Brassicae oleracea at the 3 leaf stage planted in a polyethylene cup. After the drug solution dried, leaves and stems were cut out and placed in a 50 mL cup. 5 second-stage larvae of Plutella xylostella were released there, and the lid was closed. This cup was stored at 25° C., and the number of surviving insects was counted after 5 days, and the mortality of the insects was calculated by the following equation.
(§2) Mortality of Insects (%)=(Number of Dead Insects/Number of Test Insects)×100

Another data set relates to Spodoptera litura. The data set is described as follows: whole plant or invertebrate. It counts as in vivo. The settings on record: 144 h, 500 ppm active ingredient, 20 mL/cup sprayed on Brassicae oleracea, fourth-stage larvae, 25° C., after 6 days, read-out: mortality of the insects. How it is done:
as §1
The drug solution for test was sprayed at a rate of 20 mL/cup on Brassicae oleracea at the 5 to 6 leaf stages planted in a polyethylene cup. After the drug solution dried, 10 fourth-stage larvae of Spodoptera litura were released. Brassicae oleracea at the 5 to 6 leaf stage planted in this polyethylene cup was covered with an another polyethylene cup (volume of 400 mL). This was stored at 25° C., and the number of surviving insects was counted after 6 days, then the mortality of the insects was calculated by the following equation.
as §2

The test system of another data set is Blattalla germanica. The data set can be described thus: Test Example 6: treated filter paper with sucrose, Blattalla germanica male adults, mortality index. It counts as in vivo. To be noted: 500 ppm active ingredient, 0.7 mL on filter paper with sucrose; 2 male adults; after 6 days. How it is done:
as §1
A filter paper with a diameter of 5.5 cm was placed in the bottom of a polyethylene cup, then 0.7 mL of the above drug solution for test was added dropwise on the filter paper, and 30 mg of sucrose was uniformly added as a feed. 2 male adults of Blattalla germanica were released in the polyethylene cup, and the lid was closed. The number of dead insects was calculated after 6 days.
The mortality was calculated by the following equation and was evaluated by the indexes of 4: mortality 100%, 2:50%, and 0:0%.
Mortality (%)=(Number of Dead Insects/Number of Test Insects)×100

For data set [1], the system named is Frankliniella occidentalis. The data set can be described thus: Test Example 10: spray on cucumber, Frankliniella occidentalis larvae on cut leaves, preventive value. To be noted: 500 ppm active ingredient, 10 mL/cup sprayed on cucumber; larvae on cut first true leaves; after 7 days. Type of data set: in vivo. How it is done: The drug solution for test was sprayed at a rate of 10 mL/cup on cucumber at the second true leaf-expansion stage planted in a polyethylene cup. After the drug solution dried, the first true leaves were cut out and placed in a polyethylene cup, then 20 larvae of Frankliniella occidentalis were released, and the lid was closed. After 7 days, the number of surviving larvae on the leaves of cucumber was investigated, and the preventive value was calculated by the following equation. Preventive Value (%)={1−(Cb×Tai)/(Cai×Tb)}×100 Here, the letters in the equation represent the following meaning. Cb: Number of Insects in Untreated Area Before Treatment Cai: Number of Insects in Untreated Area at Observation Tb: Number of Insects in Treated Area Before Treatment Tai: Number of Insects in Treated Area at Observation

SMILES strings stand for the structures.

For orientation: mortality means the percentage killed. The melting point is the temperature, or range, at which the solid turns liquid.

As for `Cc1ccc(-c2ccc(Cl)cc2)cc1-c1c(O)cnn(C)c1=O` [I-a-59, 4-[5-(4-chlorophenyl)-2-methylphenyl]-5-hydroxy-2-methyl-3(2H)-pyridazinone], the mortality at 500 ppm with Plutella xylostella and in the data set with Spodoptera litura was at least 80% throughout.
Take `CCc1ccccc1-c1c(OC(=O)c2ccccc2)cnn(C)c1=O` [I-b-1, 5-benzoyloxy-4-(2-ethylphenyl)-2-methyl-3(2H)-pyridazinone]: the “index (mortality)” value in the data set with Blattalla germanica is reported as 4 (mortality 100%).
For `CCc1cc(C)c(-c2ccc(Cl)cc2)c(CC)c1-c1c(O)c(C)nn(C)c1=O` [I-a-48, 4-[3-(4-chlorophenyl)-2,6-diethyl-4-methylphenyl)-5-hydroxy-2,6-dimethyl-3(2H)-pyridazinone], the melting point was in the range of 248 to 250 °C.
The same measure, in the same setting: for `Cc1ccc(Br)cc1-c1c(O)c(C)nn(C)c1=O` [I-a-45, 4-(5-bromo-2-methylphenyl)-5-hydroxy-2,6-dimethyl-3(2H)-pyridazinone] the value was 217 to 218 °C.
On to `Cc1ccc(-c2ccc(F)cc2)cc1-c1c(O)c(C)nn(C)c1=O` [I-a-46, 4-[5-(4-fluorophenyl)-2-methylphenyl]-5-hydroxy-2,6-dimethyl-3(2 H)-pyridazinone], for which the mortality at 500 ppm with Plutella xylostella is at least 80%.
Molecule `CCc1cc(CC)c(-c2c(O)c(C)nn(C)c2=O)c(CC)c1Cl` [I-a-49, 4-(3-chloro-2,4,6-triethylphenyl)-5-hydroxy-2,6-dimethyl-3(2H)-pyridazinone] returned a melting point of 225 to 226 °C.
On the same count and under the same terms, for `CCc1cc(C)c(F)c(CC)c1-c1c(O)c(C)nn(C)c1=O` [I-a-74, 4-(2,6-diethyl-3-fluoro-4-methylphenyl)-5-hydroxy-2,6-dimethyl-3(2H)-pyridazinone] the value was 193 to 195 °C.
In data set [1], `Cc1ccc(-c2ccc(Cl)cc2)cc1-c1c(O)c(C)nn(C)c1=O` [I-a-40] showed a preventive value of at least 90%.
Molecule `C#Cc1cc(C)cc(C)c1-c1c(O)c(C)nn(C)c1=O` [I-a-44, 4-(2-ethynyl-4,6-dimethylphenyl)-5-hydroxy-2,6-dimethyl-3(2H)-pyridazinone] yielded a melting point of 179 to 181 °C.
On the same count and under the same terms, the same measure for `CCc1cc(CC)c(-c2c(O)c(C)nn(C)c2=O)c(CC)c1Br` [I-a-50, 4-(3-bromo-2,4,6-triethylphenyl)-5-hydroxy-2,6-dimethyl-3(2H)-pyridazinone]: 225 to 226 °C.
The same measure, in the same setting: for `CCc1cc(CC)c(-c2c(O)c(C)nn(C)c2=O)c(CC)c1I` [I-a-72, 5-hydroxy-2,6-dimethyl-4-(2,4,6-triethyl-3-iodophenyl)-3(2H)-pyridazinone] the value was 217 to 219 °C.
On the same count and under the same terms, the same measure for `CCc1cc(C)c(Br)c(CC)c1-c1c(OC(=O)OC)c(C)nn(C)c1=O` [I-b-50, 4-(3-bromo-2,6-diethyl-4-methylphenyl)-5-methoxycarbonyloxy-2,6-dimethyl-3(2H)-pyridazinone]: 113 to 115 °C; for `CCc1c(Cl)c(CC)c(-c2c(O)c(C)nn(C)c2=O)c(CC)c1Cl` [I-a-71, 4-(3,5-dichloro-2,4,6-triethylphenyl)-5-hydroxy-2,6-dimethyl-3(2H)-pyridazinone]: 266 to 267 °C.
Molecule `CCc1cc(C)c(Br)c(CC)c1-c1c(O)c(C)nn(C)c1=O` [I-a-47, 4-(3-bromo-2,6-diethyl-4-methylphenyl)-5-hydroxy-2,6-dimethyl-3(2H)-pyridazinone] displayed a melting point of 235 to 236 °C.
